Legend:
Experiment in all cases: Z'-LYTE kinase panel
Type in all cases: biochemical
NEK9 = target: T1, NEK9 (Homo sapiens, UniProt Q8TD19)
T1 construct: purchased ThermoFisher (SelectScreen, Z'-LYTE)
T1 sequence (Q8TD19 1-979): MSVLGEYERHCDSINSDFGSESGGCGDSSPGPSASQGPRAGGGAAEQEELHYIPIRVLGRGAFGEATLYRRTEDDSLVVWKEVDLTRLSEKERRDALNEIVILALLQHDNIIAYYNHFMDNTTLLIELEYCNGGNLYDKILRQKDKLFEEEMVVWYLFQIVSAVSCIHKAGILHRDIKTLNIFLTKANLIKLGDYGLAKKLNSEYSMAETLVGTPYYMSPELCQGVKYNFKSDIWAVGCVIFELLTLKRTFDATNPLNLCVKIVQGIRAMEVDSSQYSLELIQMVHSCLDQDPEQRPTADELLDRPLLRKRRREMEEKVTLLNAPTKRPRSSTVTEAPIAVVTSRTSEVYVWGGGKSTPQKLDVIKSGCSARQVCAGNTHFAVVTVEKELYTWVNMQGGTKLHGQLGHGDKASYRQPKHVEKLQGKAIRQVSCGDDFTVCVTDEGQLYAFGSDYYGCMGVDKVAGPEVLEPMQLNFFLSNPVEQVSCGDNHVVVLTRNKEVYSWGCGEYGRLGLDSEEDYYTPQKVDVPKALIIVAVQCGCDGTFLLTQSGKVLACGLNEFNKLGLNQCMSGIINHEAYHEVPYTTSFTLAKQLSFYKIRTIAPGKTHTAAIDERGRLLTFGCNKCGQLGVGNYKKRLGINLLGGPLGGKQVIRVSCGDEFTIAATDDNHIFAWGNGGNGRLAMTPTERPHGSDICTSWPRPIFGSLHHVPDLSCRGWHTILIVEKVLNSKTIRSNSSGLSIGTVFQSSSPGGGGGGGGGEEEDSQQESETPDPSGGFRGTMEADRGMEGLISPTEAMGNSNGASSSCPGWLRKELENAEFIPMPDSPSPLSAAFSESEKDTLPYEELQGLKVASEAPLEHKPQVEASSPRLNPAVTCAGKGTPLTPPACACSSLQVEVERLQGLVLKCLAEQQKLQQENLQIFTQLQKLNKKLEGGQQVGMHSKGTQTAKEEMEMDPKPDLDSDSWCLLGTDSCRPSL
Procedure: (§1) Compounds 2, 3 and 5 were tested for activity against the 225 kinases in the ThermoFisher standard kinase panel. The standard Z′-LYTE assay protocol (ThermoFisher) was used to measure the percentage inhibition at 10 µM compound concentration (details are provided in the supporting information).

HIPK1 (Myak) = target: T2, HIPK1 (Myak) (Homo sapiens, UniProt Q86Z02)
T2 construct: purchased ThermoFisher (SelectScreen, Z'-LYTE)
T2 sequence (Q86Z02 whole entry): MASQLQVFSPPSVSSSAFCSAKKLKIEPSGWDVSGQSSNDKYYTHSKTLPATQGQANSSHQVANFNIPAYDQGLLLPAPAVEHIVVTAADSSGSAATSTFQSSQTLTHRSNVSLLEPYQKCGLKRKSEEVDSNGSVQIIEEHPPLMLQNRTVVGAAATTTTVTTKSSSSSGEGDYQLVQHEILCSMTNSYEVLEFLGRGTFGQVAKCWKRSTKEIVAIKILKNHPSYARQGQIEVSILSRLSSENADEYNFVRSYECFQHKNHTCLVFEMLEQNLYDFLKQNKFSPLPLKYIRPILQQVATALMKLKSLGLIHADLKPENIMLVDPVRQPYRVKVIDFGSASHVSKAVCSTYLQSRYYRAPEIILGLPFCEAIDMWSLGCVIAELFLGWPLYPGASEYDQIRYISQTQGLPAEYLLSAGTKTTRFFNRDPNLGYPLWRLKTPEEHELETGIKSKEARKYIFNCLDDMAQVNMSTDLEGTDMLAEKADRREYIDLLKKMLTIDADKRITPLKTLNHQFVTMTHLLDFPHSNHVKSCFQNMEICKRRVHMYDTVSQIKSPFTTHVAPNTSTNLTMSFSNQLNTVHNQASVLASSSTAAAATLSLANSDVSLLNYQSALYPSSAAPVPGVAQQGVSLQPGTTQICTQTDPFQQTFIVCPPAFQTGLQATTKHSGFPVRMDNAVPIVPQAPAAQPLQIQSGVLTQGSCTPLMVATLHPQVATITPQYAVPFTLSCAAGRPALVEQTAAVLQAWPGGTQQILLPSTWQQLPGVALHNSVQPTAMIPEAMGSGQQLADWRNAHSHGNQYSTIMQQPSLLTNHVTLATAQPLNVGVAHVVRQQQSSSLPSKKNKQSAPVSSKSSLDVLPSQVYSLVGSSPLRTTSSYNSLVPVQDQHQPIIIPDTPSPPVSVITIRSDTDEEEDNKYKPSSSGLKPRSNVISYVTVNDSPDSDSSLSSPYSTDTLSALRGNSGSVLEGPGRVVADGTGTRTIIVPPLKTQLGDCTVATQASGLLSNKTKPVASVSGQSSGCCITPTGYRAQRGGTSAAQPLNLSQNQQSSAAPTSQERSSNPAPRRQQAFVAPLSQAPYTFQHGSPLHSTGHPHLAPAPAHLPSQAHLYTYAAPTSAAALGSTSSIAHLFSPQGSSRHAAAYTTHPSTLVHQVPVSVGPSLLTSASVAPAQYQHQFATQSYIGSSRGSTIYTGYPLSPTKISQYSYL
Procedure: as §1

TXK = target: T3, TXK (Homo sapiens, UniProt P42681)
T3 construct: purchased ThermoFisher (SelectScreen, Z'-LYTE)
T3 sequence (P42681 1-527): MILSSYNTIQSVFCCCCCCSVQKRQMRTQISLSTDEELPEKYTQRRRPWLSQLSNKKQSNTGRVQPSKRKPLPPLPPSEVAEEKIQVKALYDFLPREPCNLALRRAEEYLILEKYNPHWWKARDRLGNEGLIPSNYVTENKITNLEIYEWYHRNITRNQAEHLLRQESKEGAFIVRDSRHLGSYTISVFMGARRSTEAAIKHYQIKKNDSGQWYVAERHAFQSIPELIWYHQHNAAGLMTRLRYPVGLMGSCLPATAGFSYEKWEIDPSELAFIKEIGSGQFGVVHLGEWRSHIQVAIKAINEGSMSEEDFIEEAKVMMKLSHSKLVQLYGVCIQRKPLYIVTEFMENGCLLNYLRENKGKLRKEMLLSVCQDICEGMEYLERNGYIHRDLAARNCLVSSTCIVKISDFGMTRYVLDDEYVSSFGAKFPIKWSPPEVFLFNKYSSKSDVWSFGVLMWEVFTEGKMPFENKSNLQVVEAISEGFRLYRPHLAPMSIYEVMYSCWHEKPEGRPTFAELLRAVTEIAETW
Procedure: as §1

PAK2 (PAK65) = target: T4, PAK2 (PAK65) (Homo sapiens, UniProt Q13177)
T4 construct: purchased ThermoFisher (SelectScreen, Z'-LYTE)
T4 sequence (Q13177 whole entry): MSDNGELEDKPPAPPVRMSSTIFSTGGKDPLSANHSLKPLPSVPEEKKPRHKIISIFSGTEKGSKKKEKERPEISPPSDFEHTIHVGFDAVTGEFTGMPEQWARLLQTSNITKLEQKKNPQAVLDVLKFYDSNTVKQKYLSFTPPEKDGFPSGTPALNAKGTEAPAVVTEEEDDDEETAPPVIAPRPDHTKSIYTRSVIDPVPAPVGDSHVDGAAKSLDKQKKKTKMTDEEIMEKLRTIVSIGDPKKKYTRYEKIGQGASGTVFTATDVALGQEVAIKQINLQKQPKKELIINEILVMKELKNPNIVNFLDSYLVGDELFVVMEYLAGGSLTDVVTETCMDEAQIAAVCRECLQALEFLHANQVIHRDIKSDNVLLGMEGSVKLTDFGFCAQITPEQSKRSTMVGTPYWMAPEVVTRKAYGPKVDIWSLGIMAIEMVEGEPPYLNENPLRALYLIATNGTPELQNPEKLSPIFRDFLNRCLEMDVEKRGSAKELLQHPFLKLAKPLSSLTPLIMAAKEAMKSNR
Procedure: as §1

HIPK2 = target: T5, HIPK2 (Homo sapiens, UniProt Q9H2X6)
T5 construct: purchased ThermoFisher (SelectScreen, Z'-LYTE)
T5 sequence (Q9H2X6 whole entry): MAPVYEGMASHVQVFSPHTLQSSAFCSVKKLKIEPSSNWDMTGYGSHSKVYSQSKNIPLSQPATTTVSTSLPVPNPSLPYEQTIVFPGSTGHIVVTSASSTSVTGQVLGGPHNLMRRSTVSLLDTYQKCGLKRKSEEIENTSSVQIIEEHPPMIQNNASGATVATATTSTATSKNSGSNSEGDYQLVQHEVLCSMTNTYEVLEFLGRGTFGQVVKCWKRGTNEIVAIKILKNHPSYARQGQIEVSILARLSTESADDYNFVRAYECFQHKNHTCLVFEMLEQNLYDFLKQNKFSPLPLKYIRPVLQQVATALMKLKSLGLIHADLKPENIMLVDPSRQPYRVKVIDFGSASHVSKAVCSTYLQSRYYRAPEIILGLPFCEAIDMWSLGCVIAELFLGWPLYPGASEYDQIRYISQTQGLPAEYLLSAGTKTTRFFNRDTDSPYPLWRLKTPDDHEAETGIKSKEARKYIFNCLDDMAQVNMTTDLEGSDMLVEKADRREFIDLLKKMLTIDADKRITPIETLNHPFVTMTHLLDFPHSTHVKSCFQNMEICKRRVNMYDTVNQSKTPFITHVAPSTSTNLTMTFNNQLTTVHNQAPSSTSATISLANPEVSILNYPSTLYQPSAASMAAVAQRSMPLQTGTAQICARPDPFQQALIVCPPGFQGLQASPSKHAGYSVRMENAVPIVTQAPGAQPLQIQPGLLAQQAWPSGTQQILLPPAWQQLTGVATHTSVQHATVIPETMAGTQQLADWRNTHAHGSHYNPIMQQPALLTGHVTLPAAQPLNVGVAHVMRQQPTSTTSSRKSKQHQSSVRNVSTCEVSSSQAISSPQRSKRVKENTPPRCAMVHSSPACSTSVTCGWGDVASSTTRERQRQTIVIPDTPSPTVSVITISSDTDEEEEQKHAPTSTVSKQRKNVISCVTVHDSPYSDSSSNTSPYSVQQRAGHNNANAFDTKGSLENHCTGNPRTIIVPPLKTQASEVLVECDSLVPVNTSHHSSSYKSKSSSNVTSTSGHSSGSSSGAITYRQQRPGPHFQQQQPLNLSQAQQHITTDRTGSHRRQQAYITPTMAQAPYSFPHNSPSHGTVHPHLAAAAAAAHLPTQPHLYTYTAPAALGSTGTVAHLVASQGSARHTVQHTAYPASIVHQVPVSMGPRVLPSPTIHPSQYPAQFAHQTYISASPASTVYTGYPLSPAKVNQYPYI
Procedure: as §1

ITK = target: T6, ITK (Homo sapiens, UniProt Q08881)
T6 construct: purchased ThermoFisher (SelectScreen, Z'-LYTE)
T6 sequence (Q08881 1-620): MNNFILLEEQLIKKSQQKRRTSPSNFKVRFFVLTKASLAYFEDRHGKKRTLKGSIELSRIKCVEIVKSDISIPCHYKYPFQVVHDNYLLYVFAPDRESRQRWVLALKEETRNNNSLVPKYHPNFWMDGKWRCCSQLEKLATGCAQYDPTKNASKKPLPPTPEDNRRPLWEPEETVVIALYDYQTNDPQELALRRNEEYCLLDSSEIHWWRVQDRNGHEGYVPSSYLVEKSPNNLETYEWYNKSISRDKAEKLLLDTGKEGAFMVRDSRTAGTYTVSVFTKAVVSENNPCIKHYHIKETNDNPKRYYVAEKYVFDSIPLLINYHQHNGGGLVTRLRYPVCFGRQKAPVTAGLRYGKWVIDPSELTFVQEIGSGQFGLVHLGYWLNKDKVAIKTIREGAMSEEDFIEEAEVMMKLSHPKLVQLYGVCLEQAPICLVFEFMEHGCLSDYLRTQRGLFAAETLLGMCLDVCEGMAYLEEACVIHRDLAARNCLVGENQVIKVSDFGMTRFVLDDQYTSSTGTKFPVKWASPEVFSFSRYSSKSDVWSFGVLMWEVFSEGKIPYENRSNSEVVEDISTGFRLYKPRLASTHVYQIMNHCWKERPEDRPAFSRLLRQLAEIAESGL
Procedure: as §1

[1] = target: T7, MAPK14 (p38 alpha) Direct (Homo sapiens, UniProt Q16539)
T7 construct: purchased ThermoFisher (SelectScreen, Z'-LYTE)
T7 sequence (Q16539 whole entry): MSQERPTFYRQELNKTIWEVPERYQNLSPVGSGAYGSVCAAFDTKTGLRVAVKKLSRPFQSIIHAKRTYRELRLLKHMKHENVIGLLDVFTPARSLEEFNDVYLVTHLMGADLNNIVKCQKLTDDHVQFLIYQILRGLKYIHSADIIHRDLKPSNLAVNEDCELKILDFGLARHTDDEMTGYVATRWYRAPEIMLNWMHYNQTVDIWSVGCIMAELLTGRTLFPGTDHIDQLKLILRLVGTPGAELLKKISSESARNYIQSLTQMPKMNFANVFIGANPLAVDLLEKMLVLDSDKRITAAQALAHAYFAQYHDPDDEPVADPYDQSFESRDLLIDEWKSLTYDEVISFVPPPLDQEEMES
Procedure: as §1

EPHA5 = target: T8, EPHA5 (Homo sapiens, UniProt P54756)
T8 construct: purchased ThermoFisher (SelectScreen, Z'-LYTE)
T8 sequence (P54756 25-1037): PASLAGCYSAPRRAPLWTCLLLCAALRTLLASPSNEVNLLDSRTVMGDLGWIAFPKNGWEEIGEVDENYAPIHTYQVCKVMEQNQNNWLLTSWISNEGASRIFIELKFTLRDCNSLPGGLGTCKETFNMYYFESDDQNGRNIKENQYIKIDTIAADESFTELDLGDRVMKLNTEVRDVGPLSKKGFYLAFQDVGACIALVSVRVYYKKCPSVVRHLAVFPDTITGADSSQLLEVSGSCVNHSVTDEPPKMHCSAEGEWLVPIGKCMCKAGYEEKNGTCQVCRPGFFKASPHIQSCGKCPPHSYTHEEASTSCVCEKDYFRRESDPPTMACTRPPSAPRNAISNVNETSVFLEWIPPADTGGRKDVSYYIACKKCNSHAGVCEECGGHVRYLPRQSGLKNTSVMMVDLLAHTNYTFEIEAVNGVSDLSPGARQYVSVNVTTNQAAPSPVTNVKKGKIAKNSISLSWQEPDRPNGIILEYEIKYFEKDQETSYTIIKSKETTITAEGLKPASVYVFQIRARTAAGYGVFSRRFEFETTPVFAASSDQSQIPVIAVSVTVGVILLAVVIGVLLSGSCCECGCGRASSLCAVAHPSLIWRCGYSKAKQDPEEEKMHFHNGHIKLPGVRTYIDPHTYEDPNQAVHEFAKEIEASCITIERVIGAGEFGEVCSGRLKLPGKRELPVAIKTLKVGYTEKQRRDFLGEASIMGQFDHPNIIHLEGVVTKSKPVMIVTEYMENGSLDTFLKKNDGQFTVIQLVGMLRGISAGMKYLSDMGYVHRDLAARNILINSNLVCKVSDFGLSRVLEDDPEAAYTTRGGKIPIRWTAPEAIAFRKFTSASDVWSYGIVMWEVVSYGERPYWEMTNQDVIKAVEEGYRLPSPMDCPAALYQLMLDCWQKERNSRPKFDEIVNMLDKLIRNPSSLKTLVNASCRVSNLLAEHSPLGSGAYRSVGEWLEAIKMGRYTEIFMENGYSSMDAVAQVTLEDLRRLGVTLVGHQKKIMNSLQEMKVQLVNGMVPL
Procedure: as §1

Compound	inhibition at 10 µM (NEK9) [%]	inhibition at 10 µM (HIPK1 (Myak)) [%]	inhibition at 10 µM (TXK) [%]	inhibition at 10 µM (PAK2 (PAK65)) [%]	inhibition at 10 µM (HIPK2) [%]	inhibition at 10 µM (ITK) [%]	inhibition at 10 µM [1] [%]	inhibition at 10 µM (EPHA5) [%]	NEK9 % Inhibition (NEK9; 10 µM compound, ATP Km app) [%]	HIPK1 (Myak) % Inhibition (HIPK1 (Myak); 10 µM compound, ATP Km app) [%]	TXK % Inhibition (TXK; 10 µM compound, ATP Km app) [%]	PAK2 (PAK65) % Inhibition (PAK2 (PAK65); 10 µM compound, ATP Km app) [%]	HIPK2 % Inhibition (HIPK2; 10 µM compound, ATP Km app) [%]	ITK % Inhibition (ITK; 10 µM compound, ATP Km app) [%]	MAPK14 (p38 alpha) Direct % Inhibition ([1]; 10 µM compound, ATP Km app) [%]	EPHA5 % Inhibition (EPHA5; 10 µM compound, ATP Km app) [%]
Cc1ncc(-c2nc(Nc3ccc(C(=O)NCCN4CCCCC4)cc3)ncc2F)n1C(C)C [Compound 3]	18	83	40	54	93	88	9	71	–	–	–	–	–	–	–	–
Cc1cc(Nc2nc(N)nn2C(=O)NC(C)C)ccc1Cl [Compound 5]	1.46	-2.24	-9	-1.24	45	10	9	6.49	–	–	–	–	–	–	–	–
XMD8-92 [Compound 2, reference compound]	–	–	–	–	–	–	–	–	-0.532	6	73	12	2	18	8	21

Reference: publication PMC4854315, “Discovery of a novel allosteric inhibitor-binding site in ERK5: comparison with the canonical kinase hinge ATP-binding site” (Acta Crystallographica. Section D, Structural Biology, 2016)
